The text below walks through data of PMC10167921 (Biochemical pharmacology, 2021).

Series [1] deals with Gram negative and Gram-positive bacterial pathogens. Kind of series: Antimicrobial assay, summary over the bacterial panel. Type of series: cell-based. To be noted: range over both strains.
In the next series the test system is S. aureus ATCC 43300. Description: microbe, parasite or virus in culture. Particulars: for Minimum inhibitory concentration: S. aureus ATCC 43300, CaMHB, 5 × 10^5 CFU mL^−1, 37 °C, 20 h, visual, duplicate. It counts as cell-based, Staphylococcus aureus.
A further series relates to HEK293 cells. Kind of series: Cytotoxicity assay. Type of series: cell-based. To be noted: HEK293, 24 h at 37 °C, resazurin fluorescence; two independent experiments of duplicate assays (n = 2). (The colour change of resazurin is a common sign of viable cells or microbes.)
Another series concerns E.coli ATCC 259922. Description: Antimicrobial assay. To be noted: CaMHB, 5 × 10^5 CFU mL^−1, 37 °C, 20 h, visual, duplicate. Type of series: cell-based, Escherichia coli.
The next series relates to B. subtilis ATCC 6051. Description: microbe, parasite or virus in culture. It counts as cell-based, Bacillus subtilis. Particulars: for Minimum inhibitory concentration: B. subtilis ATCC 6051, CaMHB, 5 × 10^5 CFU mL^−1, 37 °C, 20 h, visual, duplicate.
In the next series the test system is human red blood cells. Kind of series: Hemolysis assay. Type of series: cell-based.

Converted amounts (≈) assume the structure as drawn. “And” between values parts separate entries of the source, which are not always exact repeats. Equal values may be shown once. Where a SMILES comes first, the peptide text is derived from it. Bridges are numbered along the chain shown (N, C = ends). Where no end group is shown, it is not given here. [ ]: non-standard residue; d: D form. The star is where a group is joined. X1 = CC[C@H](C)CCCCC(=O)*; Dab = NCC[C@H](N)C(=O)O

On to FWGAAAKMLGKALPGLISMFQKN [Nc1a], for which the “MIC against Gram-positive bacteria (Staphylococcus aureus and B. subtilis)” value in series [1] lay within 1.48 to 5.9 µM. In addition, the figures for the Minimum inhibitory concentration in the series with S. aureus ATCC 43300, in the series with E.coli ATCC 259922 and in the series on B. subtilis ATCC 6051 were 2.9 to 5.9 µM, 25.8 to 51.6 µM and 1.48 to 5.9 µM, respectively. In addition, the “Cytotoxicity (CC50), 50% death of HEK293 cells” value (“Cytotoxicity (CC50), 50% death” for short) with HEK293 cells lay in the range of 12.6 to 13.5 µM.

On to `CC[C@H](C)CCCCC(=O)N[C@@H](CCN)C(=O)N[C@H](C(=O)N[C@@H](CCN)C(=O)N[C@H]1CCNC(=O)[C@H]([C@@H](C)O)NC(=O)[C@H](CCN)NC(=O)[C@H](CCN)NC(=O)[C@H](CC(C)C)NC(=O)[C@@H](CC(C)C)NC(=O)[C@H](CCN)NC1=O)[C@@H](C)O` [Colistin, colistin, reference compound] (X1-[Dab]T[Dab][Dab][Dab][dL]L[Dab][Dab]T; lactam 4-C (inferred); N-terminus assumed), for which the Minimum inhibitory concentration with E.coli ATCC 259922 lay within 0.02 to 0.11 µM.

As to `CN[C@H](CC(C)C)C(=O)N[C@H]1C(=O)N[C@@H](CC(N)=O)C(=O)N[C@H]2C(=O)N[C@H]3C(=O)N[C@H](C(=O)N[C@H](C(=O)O)c4cc(O)cc(O)c4-c4cc3ccc4O)[C@H](O)c3ccc(c(Cl)c3)Oc3cc2cc(c3O[C@@H]2O[C@H](CO)[C@@H](O)[C@H](O)[C@H]2O[C@H]2C[C@](C)(N)[C@H](O)[C@H](C)O2)Oc2ccc(cc2Cl)[C@H]1O` [Vancomycin, vancomycin, reference compound], the MIC in the series with S. aureus ATCC 43300 (Staphylococcus aureus, ATCC43300, 20 h, read-out: Minimum inhibitory concentration) fell in the range of 0.69 to 1.38 µM (≈ 1 to 2 µg/mL); in the series on B. subtilis ATCC 6051 (Bacillus subtilis, ATCC6051, 20 h, read-out: Minimum inhibitory concentration), 0.17 to 0.35 µM (≈ 0.246 to 0.507 µg/mL).

For the compound FVKELWDKVKKMGSAAWSAAKGAFA [Nc2a], the results for the Minimum inhibitory concentration in the series with S. aureus ATCC 43300, in the series on E.coli ATCC 259922 and in the series with B. subtilis ATCC 6051 were over 40 µM, 11.7 to 46.9 µM and 5.9 to 11.8 µM, respectively. In addition, the “Hemolysis at fixed concentration” value with human red blood cells (100 μM peptide) is recorded as “no hemolysis”. In the series on HEK293 cells, the “Cytotoxicity (CC50), 50% death” value is > 40 µM and 48.2 to 56.9 µM.

Take GWKDWLNKAKDFIKEKGPEILRAAANAAIN [Nc3a]: the Minimum inhibitory concentration was 23.7 to 47.4 µM in the series on S. aureus ATCC 43300, 2.3 to 4.7 µM in the series on E.coli ATCC 259922 and 1.48 to 2.9 µM with B. subtilis ATCC 6051. In the series on human red blood cells (100 μM peptide), the “Hemolysis at fixed concentration” value is given as “no hemolysis”.

FLGALLKIGAKLLPSVVGLFKKKQQ [Na1b]: the Minimum inhibitory concentration lay within 0.3 to 5.9 µM in the series on S. aureus ATCC 43300, 5.9 to 11.8 µM with E.coli ATCC 259922 and 0.18 to 2.9 µM in the series on B. subtilis ATCC 6051. In the series on HEK293 cells, the “Cytotoxicity (CC50), 50% death” value was in the range of 4.5 to 5.9 µM.

As to AGTKEWLNKAKDFIKEKGLGMLSAAANAALN [Nc3b], the Minimum inhibitory concentration in the series on S. aureus ATCC 43300, with E.coli ATCC 259922 and with B. subtilis ATCC 6051 was over 40 µM throughout. Besides, the “Hemolysis at fixed concentration” value in the series with human red blood cells (100 μM peptide) and with human red blood cells (300 μM peptide) was “no hemolysis” throughout.
